Patent US20110142842A1, “POLYPEPTIDES” (Medinnova AS, priority 2007, published 2011)

How the values were obtained:
[1] = test system: autologous responder cells (monocyte-depleted PBMC) from HLA-A*0201-negative donors; assay: Induction of pentamer positive CD8+ T cells by peptide-pulsed HLA-A*0201-transfected moDC (Example 8); format: cell-based, human
Protocol: MoDC transfected with HLA-A*0201 mRNA were harvested 18 hours after transfection and resuspended in 1-2 ml of serum-free DC-medium containing 50 μg/ml peptide, such as MART-1 or peptide #19. The cells were incubated at 37° C., 5% CO2 for 4 hours, then washed once in serum-free RPMI.
Stimulator and responder cells were seeded at a stimulator to responder (S:R) ratio of 1:10, with 3.0×10^6 responders per well in serum-free DC medium containing 10 ng/ml IL-7 (PeproTech EC Ltd.), 50 pg/ml IL-12 (PeproTech EC Ltd.), and PPD at 1 μg/ml.
On day 12 the responder cells were harvested and analyzed for the presence of pentamer positive cells. The cells were either sorted or restimulated.
Restimulation was done with autologous EBV-LCL transfected with HLA-A*0201 mRNA 12-24 hours prior to stimulation, harvested and resuspended in 1-2 ml of serum-free X-Vivo 20 (Cambrex) containing the same peptide as added on day 0 at 20 μg/ml, and incubated for 4 hours at 37° C., 5% CO2. Following incubation, the EBV-LCL were washed once in serum-free RPMI.
From day 12 of co-culture with stimulator cells, the responders were harvested, counted and analyzed for the presence of pentamer positive cells weekly. The responder cells were either restimulated, as described above, or the pentamer positive cells were sorted and expanded as described below.
Monocyte-derived dendritic cells (moDC) from HLA-A*0201-negative donors were transfected with HLA-A*0201 mRNA after maturation. 18-24 hours post-transfection the cells were pulsed with the peptides indicated in Table 2 for four hours, before co-culturing them with autologous responder cells (monocyte-depleted PBMC). On day 12 and day 19 and in some cases at day 26 of co-culture, the cells were harvested, stained with relevant peptide-MHC-pentamer and analyzed by flow cytometry. The percentage of pentamer positive cells was calculated by dividing the number of pentamer positive cells by the number of CD8+ cells. On day 12 and day 19, the cells were restimulated with autologous EBV-cells that were transfected with HLA-A*0201 mRNA and loaded for four hours with the relevant peptides indicated in Table 2.

HLA-A*0201 [2] = molecular target: HLA-A*0201 (Homo sapiens, UniProt P04439, D140Y/D185E/D98H/E176V/E277Q/G131W/G231S/I119V/I121R/I166T/I218V/L300P/L318F/N151K/N90K/P208A/P217A/Q86G/Q94H/R138H/R169H/T345S); assay: REVEAL MHC molecule binding assay (ProImmune); settings: level of binding relative to pass/fail control binder designated 100%
HLA-A*0201 [3] = molecular target: HLA-A*0201 (Homo sapiens, UniProt P04439, /I218V/L300P/L318F/N151K/N90K/P208A/P217A/Q86G/Q94H/R138H/R169H/T345S); assay: REVEAL MHC molecule binding assay (ProImmune); settings: value of the unmodified old peptide listed beside the modified peptide ID

% Pass/fail control (HLA-A*0201 [2]): 295.4%
% Pass/fail (Old Peptide) (HLA-A*0201 [3]): 295.4%
Sequence: SVDPRIANV [82] (homo sapiens) [Peptide 82, from MPO]
Day 12 % pent+/CD8+ ([1]; day 12 of co-culture): 0.04%
Day 19 % pent+/CD8+ ([1]; day 19 of co-culture, after restimulation): 0.19%
Day 12 Donors ([1]; donors with positive response / donors tested, day 12): 1/2
Day 19 Donors ([1]; donors with positive response / donors tested, day 19): 1/2
